Laboratory results published in the supplement of paper PMC11997997.

Columns and labels:
[1] = tested on: Mycobacterium tuberculosis CDC1551 (intracellular, in murine BMDM); assay: area under intracellular growth-inhibition dose-response curve (AUC (% inhibition x dose, relative)); higher = more potent; conditions: duration: 6 days; dose range: 0.13-80 uM, 8 points
Outline: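 The value is the area under the growth-inhibition dose–response curve, calculated in GraphPad Prism. Primary murine bone marrow-derived macrophages were seeded in 384-well opaque plates and, 24 h later, infected for 1 h with luciferase-expressing M. tuberculosis CDC1551 at multiplicity of infection 1. Cells were then exposed for 6 days to an 8-dose, 2.5-fold series (final 80–0.13 μM). Growth was read with the Bright-Glo luciferin assay and normalised to a reference drug control and to the lowest-concentration wells.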

[2] = tested on: murine bone marrow-derived macrophages; assay: area under cytotoxicity dose-response curve (AUC (% cytotoxicity x dose, relative)); higher = more cytotoxic; conditions: duration: 6 days; dose range: 0.13-80 uM, 8 points
Outline: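 Values are the area under the cytotoxicity dose–response curve, calculated with GraphPad Prism version 10. Primary murine bone marrow-derived macrophages were exposed to final concentrations of 80–0.13 μM for 6 days, and viability was read by CellTiter-Glo luminescence with normalisation to vehicle and positive control wells.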

SMILES | area under intracellular growth-inhibition dose-response curve [1] | area under cytotoxicity dose-response curve [2]
O=C(NCc1ccccc1)c1ccc(Br)o1 | 267 | 19.6
O=C(COC(=O)c1cc(Cl)nc(Cl)c1)NCCc1ccc(F)cc1 | 108 | 4.71
CC1=CCCC(C)(C)C1/C=C/C(C)=N/NC(=O)c1ccncc1 (stereo not drawn) | 247 | < 0
Cc1[nH]c2ccccc2c1/C=N/NC(N)=S | 131 | 102
CC(NC(=O)c1cccs1)c1ccc(Cl)cc1 (stereo not drawn) | 251 | 2.59
Cc1cccc(OCCCC(=O)NNC(=O)c2ccncc2)c1 | 224 | < 0
Cc1nnc(SCC2=C(C(=O)O)N3C(=O)C(NC(=O)COc4ccc(F)cc4)C3SC2)s1 (stereo not drawn) | 212 | 2.64
CC(=O)Nc1ccccc1NC(=O)C/C(C)=N/NC(=O)c1ccncc1 | 168 | 38.1
Cc1nnc(NCc2cccc(Cl)c2)c2ccccc12 | 211 | 128
CC(=O)c1cc(NC(=O)c2ccccc2)c(=O)oc1/C=C/N(C)C | 160 | 30.2
COc1ccc(CN(C)C(=O)COC(=O)c2cc([N+](=O)[O-])ccc2N2CCCC2)c(OC)c1OC | 31 | 66.2
COC(=O)c1c(NC(=O)CN2C(=O)NC3(CCCCC3C)C2=O)sc2c1CCC2 (stereo not drawn) | 78.7 | 4.39
Cc1cc(/C=N/NC(N)=S)c(C)n1-c1cccc(Cl)c1 | 190 | 34
CCC(=O)N1CCN(c2ccc(NC(=O)c3ccc([N+](=O)[O-])o3)cc2Cl)CC1 | 58.5 | 30.3
Cc1cccc(OCC(=O)NCc2ccccc2)c1 | 210 | < 0
CCc1ccc(C(C)NC(=O)c2cccs2)cc1 (stereo not drawn) | 123 | 120
NC(=S)N/N=C/c1ccc(-c2cc(Cl)ccc2Cl)o1 | 247 | 33.2
Cn1nnnc1SCC1=C(C(=O)O)N2C(=O)C(NC(=O)Cn3nc(C(F)F)cc3C3CC3)C2SC1 (stereo not drawn) | 177 | 38.2
CC(=O)O[C@H]1C[C@@]2(C)[C@@H](C[C@@H](O)[C@H]3[C@@]4(C)CC[C@@H](O)[C@@H](C)[C@@H]4CC[C@@]32C)/C1=C(\CCC=C(C)C)C(=O)O | 206 | < 0
O=C(/C=C/c1cccs1)N1CCN(Cc2ccc3c(c2)OCO3)CC1 | 271 | < 0
COc1cccc2c1C(=O)c1c(O)c3c(c(O)c1C2=O)C[C@@](O)(C(=O)CO)C[C@@H]3O[C@H]1C[C@H](N)[C@H](O)[C@H](C)O1.Cl | 117 | 147
CCc1ccc(/C(C)=N/NC(=O)c2ccc(-n3cnnn3)cc2)cc1 | < 0 | 24.6

SMILES | area under intracellular growth-inhibition dose-response curve [1] | area under cytotoxicity dose-response curve [2]
O=C(N/N=C/c1cccn1-c1ccccc1)c1ccncc1 | 251 | 57.4
Cn1cc(/C=N/NC(N)=S)c2ccccc21 | 275 | < 0
CC(=O)N1CCN(c2cc3c(cc2F)c(=O)c(C(=O)O)cn3C2CC2)CC1 | 228 | 6.41
CCC(=O)N1CCN(c2ccc(NC(=O)c3ccc([N+](=O)[O-])o3)cc2)CC1 | 47.9 | 3.32
O.Sc1[nH]cnc2ncnc1-2 | 140 | < 0
C/C(CC(=O)Nc1ccc(C)c(Cl)c1)=N\NC(=O)c1ccncc1 | 272 | < 0
COc1ccc(/C=N/NC(=O)c2ccncc2)cc1CN1CCN(c2ccc(F)cc2)CC1 | 228 | 3.26
Cc1ccc(C(=O)OCC(=O)NC2CCCC(C)C2C)cc1S(=O)(=O)N1CCCCC1 (stereo not drawn) | 136 | < 0
O=C(N/N=C/c1cn[nH]c1-c1ccc(F)cc1)c1ccncc1 | 226 | 215
NC(=S)N/N=C/c1cccc(/C=N/NC(N)=S)c1 | 177 | 91.2
CN(CC(=O)Nc1ccccc1Br)C(=O)c1ccccc1Sc1ccccc1C#N | 45.3 | 24.4
C=CCn1c(SCC(=O)NC(=O)Cc2ccccc2)nc2ccccc2c1=O | 158 | < 0
O=C(C=Cc1cccc(Cl)c1)c1ccccc1 | 252 | 6.7
CCOc1ccc(C(=O)Nc2ccc(NC(=S)NC(=O)CC)cc2)cc1Cl | 179 | < 0
NC(=S)N/N=C/c1ccc(-n2nncc2-c2ccc(Cl)cc2)cc1 | 216 | 47.7
Cc1ccc(C)c2sc(N3CCN(C(=O)c4ccc([N+](=O)[O-])o4)CC3)nc12 | 3.34 | 33.4
Cc1ccc(CNC(=O)c2ccc(Br)o2)cc1 | 267 | < 0
C=C[C@]1(C)C[C@@H](OC(=O)CSCCN(CC)CC)[C@]2(C)C(C)CC[C@]3(CCC(=O)[C@H]32)[C@@H](C)[C@@H]1O.O=C(O)/C=C/C(=O)O (stereo partly drawn) | 199 | 89.1
Cc1cccc(Cn2ccc(NC(=O)c3ccc4c(c3)OCO4)n2)c1 | 133 | 85.5
Cc1ccc2sc(N3CCN(C(=O)c4ccc([N+](=O)[O-])o4)CC3)nc2c1C | 12.2 | 11.3
Cc1ccc(NC(=O)c2cc(S(=O)(=O)N3CCCCC3)ccc2N2CCOCC2)cc1S(=O)(=O)N(C)C | < 0 | 58.9
Cc1nc(SCc2cccc(F)c2)c2oc3ccccc3c2n1 | 186 | < 0
